Measured values as given in patent US20250100998A1, “PARP7 INHIBITORS” (Gilead Sciences, Inc., priority 2023, published 2025).

The compounds below were run on STAT1 (phosphorylated at Tyr701) in NCI-H1373 cells (assay: Phospho-STAT1 (Tyr701) LANCE Ultra TR-FRET detection assay). Details: Homo sapiens, NCI-H1373, 48 h, induction of pSTAT1 in NCI-H1373 cells, 48 hours incubation; normalized to 10 uM positive control and DMSO; 4-parameter fit; read-out: NH1373 pSTAT1 EC50.
Assay type: cell-based
Protocol: Phospho-STAT1 (Tyr701 LANCE Ultra TR-FRET Detection Assay
LANCE Ultra phospho-STAT1 (Tyr701) kits are designed for the detection of phosphorylated STAT1 in cell lysates using a simple, homogeneous LANCE Ultra sandwich assay (Cat. #TRF4028M). This assay is intended for assessing compound induction of endogenous levels of cellular STAT1 (phosphorylated at Tyr701) in NCI-H1373 cells. The NCI-H1373 cells are cultured in RPMI 1640 media containing 10% heat inactivated FBS, GlutaMAX, 1% Penicillin-Streptomycin. An Echo acoustic liquid handler is used to transfer 60 nanoliters of compound dilutions using the Echo Qualified, 384-well polypropylene microplate clear flat bottom source plates into a Greiner (#781080) cell culture microplate. NCI-H1373 cells are seeded into these compound-spotted culture plates at 30,000 cells/well in a 60 uL volume in growth media. The plates are incubated in a 5% CO2 humidified incubator at 37° C. for 48 hours. […] Briefly, […] of supplemented lysis buffer is added to each well and allowed to shake for 1 hour at 400 rpm. Next, 5 ul of remixed antibody solutions (vol/vol) prepared in detection buffer are added to each well and allowed to incubate at room temperature overnight. After spinning the plate down at 300 rpm for 1 min, the plate is read on an EnVision plate reader set up for Eu3+ Cryptate and fluorescence emission is measured at two different wavelengths (665 nm and 620 nm). The HTRF ratio is then calculated ([…]) for each well to determine the amount of pSTAT1 in the cell lysate, and the data is then normalized to 10 uM (S)-5-((1-(3-oxo-3-(4-(5-(trifluoromethyl)pyrimidin-2-yl)piperazin-1-yl)propoxy)propan-2-yl)amino)-4-(trifluoromethyl)pyridazin-3(2H)-one positive and DMSO negative controls. The values were then plotted as a function of compound concentration and a 4-parameter fit was applied to derive the EC50 values.

Row | Structure (SMILES) | EC50 [nM]
1 | O=c1[nH]ncc(N[C@H]2CCC[C@@H](Cn3ccc4cc(-c5nc6n(n5)COCCO6)c(F)cc4c3=O)C2)c1C(F)(F)F [Example 8, 6-(7,8-dihydro-5H-[1,2,4]triazolo[5,1-b][1,5,3]dioxazepin-2-yl)-7-fluoro-2-(((1R,3S)-3-((6-oxo-5-(trifluoromethyl)-1,6-dihydropyridazin-4-yl)amino)cyclohexyl)methyl)isoquinolin-1(2H)-one] | 5.86
2 | O=c1[nH]ncc(N[C@H]2CCC[C@@H](Cn3ccc4cc(-c5ncc6c(n5)NCCO6)c(F)cc4c3=O)C2)c1C(F)(F)F [Example 9, 6-(7,8-dihydro-6H-pyrimido[5,4-b][1,4]oxazin-2-yl)-7-fluoro-2-(((1R,3S)-3-((6-oxo-5-(trifluoromethyl)-1,6-dihydropyridazin-4-yl)amino)cyclohexyl)methyl)isoquinolin-1(2H)-one] | 6.39
3 | CC(O)c1cnc(-c2cc3ccn(C[C@@H]4CCC[C@H](Nc5cn[nH]c(=O)c5C(F)(F)F)C4)c(=O)c3cc2F)nc1 (stereo partly drawn) [Example 10, 7-fluoro-6-(5-(1-hydroxyethyl)pyrimidin-2-yl)-2-(((1R,3S)-3-((6-oxo-5-(trifluoromethyl)-1,6-dihydropyridazin-4-yl)amino)cyclohexyl)methyl)isoquinolin-1(2H)-one] | 6.86
4 | CS(=O)(=O)c1ccc(-c2cc3ccn(C[C@@H]4CCC[C@H](Nc5cn[nH]c(=O)c5C(F)(F)F)C4)c(=O)c3cc2F)nc1 [Example 11, 7-fluoro-6-(5-(methylsulfonyl)pyridin-2-yl)-2-(((1R,3S)-3-((6-oxo-5-(trifluoromethyl)-1,6-dihydropyridazin-4-yl)amino)cyclohexyl)methyl)isoquinolin-1(2H)-one] | 13.6
5 | O=c1[nH]ncc(N[C@H]2CCC[C@@H](Cn3ccc4cc(-c5ncc(F)cn5)c(F)cc4c3=O)C2)c1C(F)(F)F [Example 12, 7-fluoro-6-(5-fluoropyrimidin-2-yl)-2-(((1R,3S)-3-((6-oxo-5-(trifluoromethyl)-1,6-dihydropyridazin-4-yl)amino)cyclohexyl)methyl)isoquinolin-1(2H)-one] | 23.2
6 | CS(=O)(=O)c1cnc(-c2cc3ccn(C[C@@H]4CCC[C@H](Nc5cn[nH]c(=O)c5C(F)(F)F)C4)c(=O)c3cc2F)nc1 [Example 13, 7-fluoro-6-(5-(methylsulfonyl)pyrimidin-2-yl)-2-(((1R,3S)-3-((6-oxo-5-(trifluoromethyl)-1,6-dihydropyridazin-4-yl)amino)cyclohexyl)methyl)isoquinolin-1(2H)-one] | 6.21
7 | O=c1[nH]ncc(N[C@H]2CCC[C@@H](Cn3ccc4cc(-c5ncc(OCC(F)F)cn5)c(F)cc4c3=O)C2)c1C(F)(F)F [Example 14, 6-(5-(2,2-difluoroethoxy)pyrimidin-2-yl)-7-fluoro-2-(((1R,3S)-3-((6-oxo-5-(trifluoromethyl)-1,6-dihydropyridazin-4-yl)amino)cyclohexyl)methyl)isoquinolin-1(2H)-one] | 44.2
8 | CC(C)(O)COc1cnc(-c2cc3ccn(C[C@@H]4CCC[C@H](Nc5cn[nH]c(=O)c5C(F)(F)F)C4)c(=O)c3c(F)c2F)nc1 [Example 16, 7,8-difluoro-6-(5-(2-hydroxy-2-methylpropoxy)pyrimidin-2-yl)-2-(((1R,3S)-3-((6-oxo-5-(trifluoromethyl)-1,6-dihydropyridazin-4-yl)amino)cyclohexyl)methyl)isoquinolin-1(2H)-one] | 31.3
9 | O=c1[nH]ncc(N[C@H]2CCC[C@@H](Cn3ccc4cc(-c5nc6ccc(F)cn6n5)c(F)c(F)c4c3=O)C2)c1C(F)(F)F [Example 17, 7,8-difluoro-6-(6-fluoro-[1,2,4]triazolo[1,5-a]pyridin-2-yl)-2-(((1R,3S)-3-((6-oxo-5-(trifluoromethyl)-1,6-dihydropyridazin-4-yl)amino)cyclohexyl)methyl)isoquinolin-1(2H)-one] | 1.16
10 | CC(C)(O)c1cnc(-c2cc3ccn(C[C@@H]4CCC[C@H](Nc5cn[nH]c(=O)c5C(F)(F)F)C4)c(=O)c3c(F)c2F)nc1 [Example 18, 7,8-difluoro-6-(5-(2-hydroxypropan-2-yl)pyrimidin-2-yl)-2-(((1R,3S)-3-((6-oxo-5-(trifluoromethyl)-1,6-dihydropyridazin-4-yl)amino)cyclohexyl)methyl)isoquinolin-1(2H)-one] | 3.23
11 | O=c1[nH]ncc(N[C@H]2CCC[C@@H](Cn3ccc4cc(-c5ccc(C(F)F)cn5)c(F)c(F)c4c3=O)C2)c1C(F)(F)F [Example 19, 6-(5-(difluoromethyl)pyridin-2-yl)-7,8-difluoro-2-(((1R,3S)-3-((6-oxo-5-(trifluoromethyl)-1,6-dihydropyridazin-4-yl)amino)cyclohexyl)methyl)isoquinolin-1(2H)-one] | 4.78
12 | CC(F)(F)c1cnc(-c2cc3ccn(C[C@@H]4CCC[C@H](Nc5cn[nH]c(=O)c5C(F)(F)F)C4)c(=O)c3c(F)c2F)nc1 [Example 20, 6-(5-(1,1-difluoroethyl)pyrimidin-2-yl)-7,8-difluoro-2-(((1R,3S)-3-((6-oxo-5-(trifluoromethyl)-1,6-dihydropyridazin-4-yl)amino)cyclohexyl)methyl)isoquinolin-1(2H)-one] | 1.61
13 | O=c1[nH]ncc(N[C@H]2CCC[C@@H](Cn3ccc4cc(-c5ncc(OC(F)F)cn5)c(F)c(F)c4c3=O)C2)c1C(F)(F)F [Example 21, 6-(5-(difluoromethoxy)pyrimidin-2-yl)-7,8-difluoro-2-(((1R,3S)-3-((6-oxo-5-(trifluoromethyl)-1,6-dihydropyridazin-4-yl)amino)cyclohexyl)methyl)isoquinolin-1(2H)-one] | 1.52
14 | COc1nc(-c2cc3ccn(C[C@@H]4CCC[C@H](Nc5cn[nH]c(=O)c5C(F)(F)F)C4)c(=O)c3c(F)c2F)ncc1C#N [Example 22, 2-(7,8-difluoro-1-oxo-2-(((1R,3S)-3-((6-oxo-5-(trifluoromethyl)-1,6-dihydropyridazin-4-yl)amino)cyclohexyl)methyl)-1,2-dihydroisoquinolin-6-yl)-4-methoxypyrimidine-5-carbonitrile] | 2.42
15 | O=c1[nH]ncc(N[C@H]2CCC[C@@H](Cn3cc(F)c4cc(-c5ncc(OC(F)(F)F)cn5)c(F)cc4c3=O)C2)c1C(F)(F)F [Example 23, 4,7-difluoro-2-(((1R,3S)-3-((6-oxo-5-(trifluoromethyl)-1,6-dihydropyridazin-4-yl)amino)cyclohexyl)methyl)-6-(5-(trifluoromethoxy)pyrimidin-2-yl)isoquinolin-1(2H)-one] | 9.13
16 | CS(=N)(=O)c1cnc(-c2cc3ccn(C[C@@H]4CCC[C@H](Nc5cn[nH]c(=O)c5C(F)(F)F)C4)c(=O)c3c(F)c2F)nc1 (stereo partly drawn) [Example 24, 7,8-difluoro-6-(5-(methylsulfonimidoyl)pyrimidin-2-yl)-2-(((1R,3S)-3-((6-oxo-5-(trifluoromethyl)-1,6-dihydropyridazin-4-yl)amino)cyclohexyl)methyl)isoquinolin-1(2H)-one] | 38.1
17 | O=c1[nH]ncc(N[C@H]2CCC[C@@H](Cn3cnc4cc(-c5ncc(OC(F)F)cn5)c(F)cc4c3=O)C2)c1C(F)(F)F [Example 25, 7-(5-(difluoromethoxy)pyrimidin-2-yl)-6-fluoro-3-(((1R,3S)-3-((6-oxo-5-(trifluoromethyl)-1,6-dihydropyridazin-4-yl)amino)cyclohexyl)methyl)quinazolin-4(3H)-one] | 3.78
